{
  "source": "patent US20140357706A1",
  "about": "“Stearate Compounds” (THE UAB RESEARCH FOUNDATION, priority 2011, published 2014)",
  "key": {"[1]": {"tested_on": "Ras", "experiment": "Ras activation assay in Hs578T cells", "assay_type": "cell-based, human", "conditions": "with or without EGF", "method": "The concentration of stearate used to treat the Hs578T cells was 50 μM. When EGF was used, the concentration was 1 nM EGF. Before the treatment with stearate or EGF, cells were first starved for 24-48 hours. Stearate was loaded onto fatty acid-free bovine serum albumin (BSA) according to the method reported by Spector et al. (13); briefly, stearate (0.5 g) was dissolved in chloroform (100 ml) and mixed well with 10 g diatomaceous earth in a 1 liter flask. The mixture was stirred and dried under nitrogen until powder. BSA is a physiological carrier of fatty acids and was used to avoid the introduction of organic solvents to solutions coming into contact with cells. Fatty acid-free BSA (1 g) was dissolved in 100 ml with Dulbecco's modified Eagle's medium without phenol red and mixed with 3 g of the stearate/diatomaceous earth mixture with stirring for 45 min. The stearate/BSA solution was filtered through a 0.45 μm filter, and adjusted to pH 7.4. The concentration of stearate in the solution was detected with the NEFA C Kit from Wako Chemicals GmbH (Neuss, Germany). […]\nRas and Rho activation assay kits were purchased from Millipore (Billerica, Mass.). […] The beads were washed three times with lysis buffer B. Bound Ras-GTP and Rho-GTP proteins were detected by immunoblot using Ras and Rho antibodies."}, "[2]": {"tested_on": "Rho mRNA", "experiment": "RT-PCR for RhoA, RhoB, RhoC in Hs578T cells", "assay_type": "cell-based, human", "method": "In total, 30-40% confluent Hs578T cells were treated with stearate (50 μM) for 48 hours after starvation for 24 hours. Total RNA was extracted and reverse-transcribed as described in RT-PCR for p21^CIP1/WAF1 and p27^[…]. The PCR assay was performed in a volume of 50 μl, containing 4μl DNA template, 45 μl Platinum PCR Supermix (Invitrogen) and 0.2 μM each specific primer. PCR specificity and efficiency were improved by using hot start PCR with 3 min pre-denaturation, at 95° C., and 30 cycles of denaturation (95° C., 30 s), annealing (52° C., 30 s) and 1 min extension (72° C.). The PCR products (20 INS>μl) were analyzed by means of 1% agarose in tris-acetate ethylenediaminetetraacetic acid gel electrophoresis and visualized by ethidium bromide staining under ultraviolet; digital images were analyzed by means of a FUJI Medical System (FUJIFILM) and the bands quantified by Quantity Software (FUJIFILM). […] was used to normalize the variable RNA loading in each sample. The calculated result represents the relative expression levels of target genes compared with its expression in the control group after the value of target genes was normalized to GAPDH expression levels."}},
  "data": [
    {"smiles": "CCCCCCCCCCCCCCCCCC(=O)O", "note": "[stearate, Stearic acid]", "values": [
      {"measurement": "Binding of GTP to Ras", "setting": "[1]", "result": "increases"},
      {"measurement": "Rho mRNA expression", "setting": "[2]; over 24 h", "result": "neither EGF nor stearate affected"},
      {"measurement": "RhoA mRNA expression", "setting": "[2]; stearate 50 μM for 48 h", "result": "significantly decreased"},
      {"measurement": "RhoB mRNA expression", "setting": "[2]; stearate 50 μM for 48 h", "result": "remained unchanged"},
      {"measurement": "RhoC mRNA expression", "setting": "[2]; stearate 50 μM for 48 h", "result": "significantly decreased"},
      {"measurement": "Total Rho mRNA expression", "setting": "[2]; stearate 50 μM for 48 h", "result": "significantly decreased"}
    ]}
  ]
}
